From PubChem BioAssay AID1745844 (Carcinogenic Potency Database (CPDB), 2022)

Test system: rodent lifetime carcinogenesis bioassay, tumor incidence TD50
Assay: chronic cancer bioassays in animals – CPDB, compiled studies (AID 1745844)
Settings: inhaled

Compound: C=CCl
- TD50 (hamster, strain Syrian Golden, females, site: all sites, lesion: hemangiosarcoma, dosed 26 weeks, study length 104 weeks): 78.6 mg/kg/day
- TD50 (hamster, strain Syrian Golden, females, site: all sites, lesion: hemangiosarcoma, dosed 52 weeks, study length 104 weeks): 314 mg/kg/day
- TD50 (hamster, strain Syrian Golden, females, site: all sites, lesion: hemangiosarcoma, dosed 78 weeks, study length 104 weeks): 1920 mg/kg/day
- TD50 (hamster, strain Syrian Golden, females, site: mammary gland, lesion: carcinoma, dosed 26 weeks, study length 104 weeks): 32.3 mg/kg/day
- TD50 (hamster, strain Syrian Golden, females, site: mammary gland, lesion: carcinoma, dosed 52 weeks, study length 104 weeks): 27.7 mg/kg/day
- TD50 (hamster, strain Syrian Golden, females, site: mammary gland, lesion: carcinoma, dosed 78 weeks, study length 104 weeks): 61 mg/kg/day
- TD50 (hamster, strain Syrian Golden, females, site: skin, lesion: carcinoma, dosed 52 weeks, study length 104 weeks): 121 mg/kg/day
- TD50 (hamster, strain Syrian Golden, females, site: stomach, lesion: adenoma, dosed 26 weeks, study length 104 weeks): 47.2 mg/kg/day
- TD50 (hamster, strain Syrian Golden, females, site: stomach, lesion: adenoma, dosed 52 weeks, study length 104 weeks): 1010 mg/kg/day
- TD50 (hamster, strain Syrian Golden, females, site: stomach, lesion: adenoma, dosed 78 weeks, study length 104 weeks): 205 mg/kg/day
- TD50 (hamster, strain Syrian Golden, males, site: acoustic duct, lesion: epithelioma, dosed 30 weeks, study length 101 weeks): 855 mg/kg/day
- TD50 (hamster, strain Syrian Golden, males, site: all sites, lesion: leukemia, dosed 30 weeks, study length 101 weeks): 25800 mg/kg/day
- TD50 (hamster, strain Syrian Golden, males, site: extrahepatic tissue, lesion: angioma, dosed 30 weeks, study length 101 weeks): 9800 mg/kg/day
- TD50 (hamster, strain Syrian Golden, males, site: forestomach, lesion: epithelioma, dosed 30 weeks, study length 101 weeks): 55 mg/kg/day
- TD50 (hamster, strain Syrian Golden, males, site: liver, lesion: angioma, dosed 30 weeks, study length 101 weeks): 2380 mg/kg/day
- TD50 (hamster, strain Syrian Golden, males, site: liver, lesion: angiosarcoma, dosed 30 weeks, study length 101 weeks): 91800 mg/kg/day
- TD50 (hamster, strain Syrian Golden, males, site: liver, lesion: hepatoma, dosed 30 weeks, study length 101 weeks): 1730 mg/kg/day
- TD50 (hamster, strain Syrian Golden, males, site: skin, lesion: epithelioma, dosed 30 weeks, study length 101 weeks): 9350 mg/kg/day
- TD50 (hamster, strain Syrian Golden, males, site: skin, lesion: melanoma, dosed 30 weeks, study length 101 weeks): 7630 mg/kg/day
- TD50 (mouse, strain Charles River CD1, females, site: liver, lesion: hemangiosarcoma, dosed 26 weeks, study length 58 weeks): 91.9 mg/kg/day
- TD50 (mouse, strain Charles River CD1, females, site: lung, lesion: alveolar/bronchiolar tumor, dosed 26 weeks, study length 58 weeks): 142 mg/kg/day
- TD50 (mouse, strain Charles River CD1, females, site: mammary gland, lesion: malignant tumor, dosed 26 weeks, study length 58 weeks): 249 mg/kg/day
- TD50 (mouse, strain Charles River CD1, males, site: liver, lesion: hemangiosarcoma, dosed 26 weeks, study length 78 weeks): 32 mg/kg/day
- TD50 (mouse, strain Charles River CD1, males, site: lung, lesion: alveolar/bronchiolar tumor, dosed 26 weeks, study length 78 weeks): 88.7 mg/kg/day
- TD50 (mouse, strain Swiss, females, site: all sites, lesion: hemangiosarcoma, dosed 26 weeks, study length 104 weeks): 12.5 mg/kg/day
- TD50 (mouse, strain Swiss, females, site: all sites, lesion: hemangiosarcoma, dosed 52 weeks, study length 104 weeks): 13.8 mg/kg/day
- TD50 (mouse, strain Swiss, females, site: all sites, lesion: hemangiosarcoma, dosed 78 weeks, study length 104 weeks): 36.1 mg/kg/day
- TD50 (mouse, strain Swiss, females, site: any site (literature study), lesion: several types, types named in the paper, dosed 30 weeks, study length 77 weeks): 600 mg/kg/day
- TD50 (mouse, strain Swiss, females, site: extrahepatic tissue, lesion: angioma, dosed 30 weeks, study length 77 weeks): 70900 mg/kg/day
- TD50 (mouse, strain Swiss, females, site: extrahepatic tissue, lesion: angiosarcoma, dosed 30 weeks, study length 77 weeks): 736 mg/kg/day
- TD50 (mouse, strain Swiss, females, site: forestomach, lesion: epithelioma, dosed 30 weeks, study length 77 weeks): 9820 mg/kg/day
- TD50 (mouse, strain Swiss, females, site: liver, lesion: angioma, dosed 30 weeks, study length 77 weeks): 196 mg/kg/day
- TD50 (mouse, strain Swiss, females, site: liver, lesion: angiosarcoma, dosed 30 weeks, study length 77 weeks): 98.8 mg/kg/day
- TD50 (mouse, strain Swiss, females, site: liver, lesion: hepatoma, dosed 30 weeks, study length 77 weeks): 12200 mg/kg/day
- TD50 (mouse, strain Swiss, females, site: lung, lesion: adenoma, dosed 30 weeks, study length 77 weeks): 402 mg/kg/day
- TD50 (mouse, strain Swiss, females, site: lung, lesion: carcinoma, dosed 26 weeks, study length 104 weeks): 36.6 mg/kg/day
- TD50 (mouse, strain Swiss, females, site: lung, lesion: carcinoma, dosed 52 weeks, study length 104 weeks): 55.5 mg/kg/day
- TD50 (mouse, strain Swiss, females, site: lung, lesion: carcinoma, dosed 78 weeks, study length 104 weeks): 143 mg/kg/day
- TD50 (mouse, strain Swiss, females, site: mammary gland, lesion: carcinoma, dosed 26 weeks, study length 104 weeks): 10.6 mg/kg/day
- TD50 (mouse, strain Swiss, females, site: mammary gland, lesion: carcinoma, dosed 30 weeks, study length 77 weeks): 3750 mg/kg/day
- TD50 (mouse, strain Swiss, females, site: mammary gland, lesion: carcinoma, dosed 52 weeks, study length 104 weeks): 22.9 mg/kg/day
- TD50 (mouse, strain Swiss, females, site: mammary gland, lesion: carcinoma, dosed 78 weeks, study length 104 weeks): 32.2 mg/kg/day
- TD50 (mouse, strain Swiss, females, site: skin, lesion: epithelioma, dosed 30 weeks, study length 77 weeks): 25100 mg/kg/day
- TD50 (mouse, strain Swiss, males, site: any site (literature study), lesion: several types, types named in the paper, dosed 30 weeks, study length 77 weeks): 26.1 mg/kg/day
- TD50 (mouse, strain Swiss, males, site: extrahepatic tissue, lesion: angioma, dosed 30 weeks, study length 77 weeks): 12300 mg/kg/day
- TD50 (mouse, strain Swiss, males, site: extrahepatic tissue, lesion: angiosarcoma, dosed 30 weeks, study length 77 weeks): 8030 mg/kg/day
- TD50 (mouse, strain Swiss, males, site: forestomach, lesion: epithelioma, dosed 30 weeks, study length 77 weeks): 5190 mg/kg/day
- TD50 (mouse, strain Swiss, males, site: liver, lesion: angioma, dosed 30 weeks, study length 77 weeks): 1080 mg/kg/day
- TD50 (mouse, strain Swiss, males, site: liver, lesion: angiosarcoma, dosed 30 weeks, study length 77 weeks): 70.8 mg/kg/day
- TD50 (mouse, strain Swiss, males, site: liver, lesion: hepatoma, dosed 30 weeks, study length 77 weeks): 25200 mg/kg/day
- TD50 (mouse, strain Swiss, males, site: lung, lesion: adenoma, dosed 30 weeks, study length 77 weeks): 14 mg/kg/day
- TD50 (mouse, strain Swiss, males, site: skin, lesion: epithelioma, dosed 30 weeks, study length 77 weeks): 2690 mg/kg/day
